Source: US20100028459A1, “NUTRITIONAL SUPPLEMENT COMPOSITION FOR TREATMENT OF OCULAR DISEASES” (priority 2006, published 2010)

Columns and labels:
[1] = lutein supplementation and AMD incidence (our studies); type: in vivo; conditions: supplementation of 10 mg/day
Method: Therefore, the subject composition preferably provides preferably 10 mg of pure lutein per composition, e.g. per capsule.

[2] = lutein supplementation in human; cited from earlier work
[3] = AMD patients; cited from earlier work

Row | Molecule | AMD incidence [1] | macular pigment [2] | visual field loss [3]
1 | CC1=C[C@H](O)CC(C)(C)[C@H]1/C=C/C(C)=C/C=C/C(C)=C/C=C/C=C(C)/C=C/C=C(C)/C=C/C1=C(C)C[C@@H](O)CC1(C)C [Lutein] | decreases the AMD incidence | increased macular pigment | 
2 | Zinc |  |  | slows visual field loss
